# What was measured:
# [1] = tested on: Bst DNA polymerase v.2.0; experiment: Flow cytometry assay: tolerance of dye-labeled dUTP* compared to dUTP analogs (Example 7); type: biochemical; conditions: for Tolerance: tolerance of dUTP* compared to the named dUTP^0
# Procedure: A solution of biotinylated template (2 microliters (μL) of 100 μM) and dye-labeled primer (4 μL of 100 μM) were combined in annealing buffer (40 μL; Tris (10 millimolar (mM)), EDTA (1 mM), NaCl (100 mM)). The resulting solution was heated to 95° C. and allowed to slowly cool to room temperature. A portion of this solution (8 μL) was mixed with streptavidin-labeled magnetic beads (4 μL of Invitrogen Dynabeads™ MyOne™ Streptavidin C1, 10 milligrams/milliliter (mg/mL); washed and eluant removed) and 2× bead wash buffer (8 μL; 10 mM Tris, pH 7.5, 1 mM EDTA, 2 M NaCl, 0.01% Triton X-100). After washing with TET solution (10 mM Tris, 1 mM EDTA, 0.05% Triton X-100) the beads were treated with Bst DNA polymerase v.2.0 (8 μL of 8 units (U)/μL; New England Biolabs) for five minutes. The excess enzyme was removed by washing with TET and the beads were suspended in 1×DNA polymerase buffer solution (20 mM Tris, pH 8, 10 mM NaCl, 2 mM MgCl2, 0.01% Triton X-100). The sequence of the biotinylated template was /52 Bio//iSp18/[…] […] (SEQ ID NO: 12), where “5” is indicative of the 5′-end of the oligo, 2-Bio indicates dual biotin, and iSP18 indicates a PEG spacer. […] […] (SEQ ID NO: 13), where “5” indicates the 5′-end of the oligo and JOE indicates a fluorescent dye attached to the oligo.
# Next, a portion of the suspended magnetic beads (10 μL) were removed and placed in a PCR tube. A solution of nucleotides (10 μL) was added to the tube and the tube incubated for 40 seconds (s) at 50° C. The enzyme reaction was stopped with the addition of 5 μL of 50 mM EDTA. The beads were washed with 2×100 μL TET and resuspended in 20 μL TET. A portion of the bead solution (1 μL) was added to TE (200 μL) and the beads examined for red fluorescence on a flow cytometer (BD Accuri™, APC channel). The eluant of the remaining beads was removed and 40 μL of 95:5 formamide:10 mM EDTA was added to the beads. A portion of the formamide solution (1 μL) was added to 40 μL 95:5 formamide EDTA. The solutions were examined by capillary electrophoresis (CE) on an ABI 3730 instrument and the peaks identified and quantitated by peak height. The experimental protocol is summarized schematically in FIG. 2.
# Tolerance was measured at two molar fractions, […] and 0.05, for each of the four dUTP analogs.
# [2] = tested on: Bst 2.0 DNA polymerase; experiment: Homopolymer assays of nucleotide analogs (Example 10); type: biochemical; conditions: Natural Nucleotide T (TTP = 1); template oligo 332, primer 221L
# Procedure: A homopolymer assay was performed to investigate the effectiveness of E-dCTP and P-dUTP as nucleotide analogs of dCTP. 50 μl solutions containing a template nucleic acid molecule and primer and Bst 2.0 DNA polymerase are placed in a microplate reader and the fluorescence of the solution is measured in kinetic mode. A fluorescein attached to an oligonucleotide (indicated with a * in FIG. 7) was quenched in the substrate due to the proximity of complementary G bases. Addition of dCTP and/or dCTP analogs causes extension of the 3′ end of the primer, formation of double-stranded DNA, and unquenching of the fluorescein. The fluorescence increases with the addition of multiple nucleotides.
# Additional homopolymer assays were performed according to the procedure outlined in Example 8 using different nucleotides and nucleotide analogs.
# To test for dUTP or TTP incorporation, oligo 332 was used as a template and oligo 221L was used as a primer. To test for dCTP incorporation, oligo 333 was used as a template and oligo 221L was used as a primer. To test for dGTP incorporation, oligo 334 was used as a template and oligo 221L was used as a primer. To test for dATP incorporation, hairpin oligo 221 was used as both a primer and template.
smiles,measurement,setting,value
"Cc1cn([C@H]2C[C@H](O)[C@@H](COP(=O)(O)OP(=O)(O)OP(=O)(O)O)O2)c(=O)[nH]c1=O [TTP, thymidine triphosphate, reference compound]",Apparent fraction,[1]; molar fraction dUTP* 0.05,0.058
same,Red signal,"[1]; molar fraction dUTP* 0.05, rest the named dUTP^0","2,900"
same,Apparent fraction,[1]; molar fraction dUTP* 0.5,0.42
same,Red signal,"[1]; molar fraction dUTP* 0.5, rest the named dUTP^0","21,000"
same,Tolerance,[1]; molar fraction dUTP* 0.05,1.2
same,Tolerance,[1]; molar fraction dUTP* 0.5,0.8
same,Relative Rate in Homopolymer Assay,[2],1

# Reference: patent US11326207B2, “Sequencing using non-natural nucleotides” (Ultima Genomics, Inc., priority 2017, dated 2022)
